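In this assay, cells in 96-well plates receive the compound at five concentrations for 48 hours. Endpoints are linearly interpolated between the surrounding concentrations. At the TGI there is no net growth.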
Columns and labels:
Assay in all cases: NCI tumour cell line growth inhibition, 48 h
[1] = system: A498 renal
[2] = system: A549 NSCLC
[3] = system: CAKI-1 renal
[4] = system: CCRF-CEM leukemia
[5] = system: COLO 205 colon
[6] = system: DLD-1 colon
[7] = system: DMS 114 small cell lung
[8] = system: DMS 273 small cell lung
[9] = system: EKVX NSCLC
[10] = system: HCC-2998 colon
[11] = system: HCT-116 colon
[12] = system: HCT-15 colon
[13] = system: HL-60(TB) leukemia
[14] = system: HOP-18 NSCLC
[15] = system: HOP-62 NSCLC
[16] = system: HOP-92 NSCLC
[17] = system: HT29 colon
[18] = system: IGROV1 ovarian
[19] = system: K-562 leukemia
[20] = system: KM12 colon
[21] = system: LOX IMVI melanoma
[22] = system: M19-MEL melanoma
[23] = system: MALME-3M melanoma
[24] = system: MCF7 breast
[25] = system: MOLT-4 leukemia
[26] = system: NCI-H226 lung
[27] = system: NCI-H23 lung
[28] = system: NCI-H460 lung
[29] = system: NCI-H522 lung
[30] = system: NCI/ADR-RES ovarian
[31] = system: OVCAR-3 ovarian
[32] = system: OVCAR-4 ovarian
[33] = system: OVCAR-8 ovarian
[34] = system: P388 leukemia
[35] = system: P388/ADR leukemia
[36] = system: RXF 393 renal
[37] = system: SF-268 CNS
[38] = system: SF-295 CNS
[39] = system: SF-539 CNS
[40] = system: SK-MEL-2 melanoma
[41] = system: SK-MEL-28 melanoma
[42] = system: SK-MEL-5 melanoma
[43] = system: SK-OV-3 ovarian
[44] = system: SN12C renal
[45] = system: SN12K1 renal
[46] = system: SNB-19 CNS
[47] = system: SNB-75 CNS
[48] = system: SNB-78 CNS
[49] = system: SW-620 colon
[50] = system: U251 CNS
[51] = system: UACC-257 melanoma
[52] = system: UACC-62 melanoma
[53] = system: UO-31 renal

Q: Which results are given for CN(c1ccccc1)c1c(-c2ccccc2)c(=O)oc2c1ccc1occc12?
A: TGI [1]: > 100 µM; TGI [2]: > 100 µM; TGI [3]: > 100 µM; TGI [4]: > 100 µM; TGI [5]: > 100 µM; TGI [6]: > 100 µM; TGI [7]: > 100 µM; TGI [8]: > 100 µM; TGI [9]: > 100 µM; TGI [10]: > 100 µM; TGI [11]: > 100 µM; TGI [12]: > 100 µM; TGI [13]: > 100 µM; TGI [14]: > 100 µM; TGI [15]: > 100 µM; TGI [16]: > 95.6 µM; TGI [17]: > 100 µM; TGI [18]: > 100 µM; TGI [19]: > 100 µM; TGI [20]: > 100 µM; TGI [21]: > 100 µM; TGI [22]: > 100 µM; TGI [23]: > 100 µM; TGI [24]: > 100 µM; TGI [25]: > 100 µM; TGI [26]: 2.85 µM; TGI [27]: > 100 µM; TGI [28]: > 100 µM; TGI [29]: > 100 µM; TGI [30]: > 100 µM; TGI [31]: > 100 µM; TGI [32]: > 100 µM; TGI [33]: > 100 µM; TGI [34]: > 100 µM; TGI [35]: > 100 µM; TGI [36]: > 100 µM; TGI [37]: > 100 µM; TGI [38]: > 100 µM; TGI [39]: > 100 µM; TGI [40]: > 100 µM; TGI [41]: > 100 µM; TGI [42]: > 100 µM; TGI [43]: > 100 µM; TGI [44]: > 100 µM; TGI [45]: > 100 µM; TGI [46]: > 100 µM; TGI [47]: > 100 µM; TGI [48]: > 100 µM; TGI [49]: > 100 µM; TGI [50]: > 100 µM; TGI [51]: > 100 µM; TGI [52]: > 100 µM; TGI [53]: > 100 µM
